Measurements taken from the NIST ThermoML archive (doi:10.1021/acs.jced.8b01233).
“And” between values parts separate entries of the source, which are not always exact repeats. Equal entries are not always repeated. ± gives the expanded uncertainty stated by the source.

Details: for viscosity / mass density / speed of sound: 102 kPa, Liquid; for viscosity: Concentric cylinders viscometry; for mass density: Vibrating tube method; for speed of sound: Frequency=3 MHz, Single path-length method; for surface tension liquid-gas: Pendant drop shape

SMILES: CC(CC(C)(C)C)CC(C)(C)CC(C)(C)C (stereo unspecified) [2,2,4,4,6,8,8-heptamethylnonane]
- viscosity (253.15 K): 14.1 ± 0.1 mPa·s
- mass density (253.15 K): 811.5 ± 2 kg/m3 and 811.4 ± 2 kg/m3
- speed of sound (288.15 K): 1305.1 ± 1 m/s
- mass density (288.15 K): 787.84 ± 0.52 kg/m3 and 787.76 ± 0.52 kg/m3
- viscosity (293.15 K): 3.73 ± 0.03 mPa·s
- speed of sound (293.15 K): 1286 ± 1 m/s
- mass density (293.15 K): 784.51 ± 0.52 kg/m3 and 784.4 ± 0.52 kg/m3
- surface tension liquid-gas (295 K): 24.2 ± 0.3 mN/m
- speed of sound (298.15 K): 1267.1 ± 1 m/s
- mass density (298.15 K): 781.15 ± 0.52 kg/m3 and 781.05 ± 0.52 kg/m3
- viscosity (303.15 K): 2.96 ± 0.03 mPa·s
- speed of sound (303.15 K): 1248.1 ± 1 m/s
- mass density (303.15 K): 777.8 ± 0.52 kg/m3 and 777.7 ± 0.52 kg/m3
- viscosity (313.15 K): 2.4 ± 0.02 mPa·s
- speed of sound (313.15 K): 1211.8 ± 1 m/s
- mass density (313.15 K): 771.09 ± 0.52 kg/m3 and 770.99 ± 0.52 kg/m3
- viscosity (323.15 K): 1.98 ± 0.02 mPa·s
- speed of sound (323.15 K): 1176.1 ± 1 m/s
- mass density (323.15 K): 764.36 ± 0.52 kg/m3 and 764.27 ± 0.52 kg/m3
- viscosity (333.15 K): 1.66 ± 0.02 mPa·s
- speed of sound (333.15 K): 1141.3 ± 1 m/s
- mass density (333.15 K): 757.62 ± 0.52 kg/m3 and 757.53 ± 0.52 kg/m3

SMILES: CCCCc1ccccc1 [butylbenzene]
- viscosity (253.15 K): 2.36 ± 0.06 mPa·s
- mass density (253.15 K): 892.8 ± 2 kg/m3
- speed of sound (288.15 K): 1373.7 ± 0.8 m/s
- mass density (288.15 K): 864.7 ± 0.31 kg/m3
- viscosity (293.15 K): 1.04 ± 0.02 mPa·s
- speed of sound (293.15 K): 1353.8 ± 0.8 m/s
- mass density (293.15 K): 860.69 ± 0.31 kg/m3
- surface tension liquid-gas (295 K): 28.8 ± 0.3 mN/m
- speed of sound (298.15 K): 1334.1 ± 0.8 m/s
- mass density (298.15 K): 856.68 ± 0.31 kg/m3
- viscosity (303.15 K): 0.891 ± 0.021 mPa·s
- speed of sound (303.15 K): 1314.5 ± 0.8 m/s
- mass density (303.15 K): 852.65 ± 0.31 kg/m3
- viscosity (313.15 K): 0.773 ± 0.021 mPa·s
- speed of sound (313.15 K): 1276.1 ± 0.8 m/s
- mass density (313.15 K): 844.6 ± 0.31 kg/m3
- viscosity (323.15 K): 0.679 ± 0.021 mPa·s
- speed of sound (323.15 K): 1238.4 ± 0.8 m/s
- mass density (323.15 K): 836.51 ± 0.31 kg/m3
- viscosity (333.15 K): 0.601 ± 0.021 mPa·s
- speed of sound (333.15 K): 1201.7 ± 0.8 m/s
- mass density (333.15 K): 828.38 ± 0.31 kg/m3

SMILES: CCCCC1CCCCC1 [butylcyclohexane]
- viscosity (253.15 K): 3.08 ± 0.06 mPa·s
- mass density (253.15 K): 829.9 ± 2 kg/m3
- speed of sound (288.15 K): 1348.8 ± 1.2 m/s
- mass density (288.15 K): 803.07 ± 0.73 kg/m3
- viscosity (293.15 K): 1.32 ± 0.02 mPa·s
- speed of sound (293.15 K): 1328.3 ± 1.2 m/s
- mass density (293.15 K): 799.33 ± 0.73 kg/m3
- surface tension liquid-gas (294.5 K): 26.6 ± 0.4 mN/m
- speed of sound (298.15 K): 1308.1 ± 1.2 m/s
- mass density (298.15 K): 795.57 ± 0.73 kg/m3
- viscosity (303.15 K): 1.11 ± 0.02 mPa·s
- speed of sound (303.15 K): 1288 ± 1.2 m/s
- mass density (303.15 K): 791.81 ± 0.73 kg/m3
- viscosity (313.15 K): 0.95 ± 0.021 mPa·s
- speed of sound (313.15 K): 1248.6 ± 1.2 m/s
- mass density (313.15 K): 784.27 ± 0.73 kg/m3
- viscosity (323.15 K): 0.826 ± 0.021 mPa·s
- speed of sound (323.15 K): 1210.1 ± 1.2 m/s
- mass density (323.15 K): 776.71 ± 0.73 kg/m3
- viscosity (333.15 K): 0.729 ± 0.021 mPa·s
- speed of sound (333.15 K): 1172.6 ± 1.2 m/s
- mass density (333.15 K): 769.1 ± 0.73 kg/m3

SMILES: CCCCCCCCCCCC [dodecane]
- speed of sound (288.15 K): 1317.4 ± 1 m/s
- mass density (288.15 K): 752.41 ± 0.53 kg/m3
- viscosity (293.15 K): 1.51 ± 0.02 mPa·s
- speed of sound (293.15 K): 1297.9 ± 1 m/s
- mass density (293.15 K): 748.79 ± 0.53 kg/m3
- surface tension liquid-gas (295 K): 24.9 ± 0.3 mN/m
- speed of sound (298.15 K): 1278.7 ± 1 m/s
- mass density (298.15 K): 745.16 ± 0.53 kg/m3
- viscosity (303.15 K): 1.25 ± 0.02 mPa·s
- speed of sound (303.15 K): 1259.5 ± 1 m/s
- mass density (303.15 K): 741.53 ± 0.53 kg/m3
- viscosity (313.15 K): 1.06 ± 0.02 mPa·s
- speed of sound (313.15 K): 1221.7 ± 1 m/s
- mass density (313.15 K): 734.25 ± 0.53 kg/m3
- viscosity (323.15 K): 0.916 ± 0.021 mPa·s
- speed of sound (323.15 K): 1184.5 ± 1 m/s
- mass density (323.15 K): 726.94 ± 0.53 kg/m3
- viscosity (333.15 K): 0.798 ± 0.021 mPa·s
- speed of sound (333.15 K): 1148.2 ± 1 m/s
- mass density (333.15 K): 719.59 ± 0.53 kg/m3
